What all share (assay): Postemergence herbicidal activity, greenhouse, visual injury
What all share (format): in vivo

Experiment [1] relates to barnyardgrass (Echinochloa crus-galli, ECHCG). As to conditions: post-emergence, read-out: Effect (% visual injury) Obs. How it is done: (§1) The plants were grown for 7-36 days (d) in a greenhouse with an approximate 14-hour (h) photoperiod which was maintained at about 23° C. during the day and 22° C. during the night. Nutrients and water were added on a regular basis and supplemental lighting was provided with overhead metal halide 1000-Watt lamps as necessary. The plants were employed for testing when they reached the second or third true leaf stage.
(§2) Spray solutions of the experimental compound mixtures were prepared by adding the stock solutions to the appropriate amount of dilution solution to form a 12 mL spray solution in two-way combinations. […] Control plants were sprayed in the same manner with the solvent blank. Application rates for component (a) are in g ae/ha, and application rates for component (b) are in g ai/ha.
(§3) The treated plants and control plants were placed in a greenhouse as described above and watered by sub-irrigation to prevent wash-off of the test compounds. After 20-22 d, the condition of the test plants as compared with that of the control plants was determined visually and scored on a scale of 0 to 100 percent where 0 corresponds to no injury and 100 corresponds to complete kill. […] The Colby method was used to determine the herbicidal effects expected from the mixtures.

The subject of experiment [2] is blackgrass (Alopecurus myosuroides, ALOMY). The settings on record: post-emergence, read-out: Effect (% visual injury) Obs. The method, then: as §1, §2, §3
Experiment [3] has as its system common lambsquarters (Chenopodium album L., CHEAL). The settings on record: post-emergence, read-out: Effect (% visual injury) Obs. How it is done:
as §1, §2, §3

In experiment [4] the test system is giant foxtail (Setaria faberi, SETFA). As to conditions: post-emergence, read-out: Effect (% visual injury) Obs. The method, then: as §1, §2, §3
Experiment [5] relates to grain sorghum (Sorghum vulgare, SORVU). The settings on record: post-emergence, read-out: Effect (% visual injury) Obs. The method, then:
as §1, §2, §3

The test system of experiment [6] is large crabgrass (Digitaria sanguinalis, DIGSA). As to conditions: post-emergence, read-out: Effect (% visual injury) Obs. The method, then:
as §1, §2, §3

Experiment [7] has as its system maize (Zea mays, ZEAMX). As to conditions: post-emergence, read-out: Effect (% visual injury) Obs. The method, then: as §1, §2, §3
Experiment [8] relates to pigweed (Amaranthus retroflexus, AMARE). The settings on record: post-emergence, read-out: Effect (% visual injury) Obs. The method, then:
as §1, §2, §3

The test system of experiment [9] is rice (Oryza sativa, ORYSA). As to conditions: post-emergence, read-out: Effect (% visual injury) Obs. How it is done:
as §1, §2, §3

For experiment [10], the system named is soybean (Glycine max, GLXMA). As to conditions: post-emergence, read-out: Effect (% visual injury) Obs. The method, then:
as §1, §2, §3

The test system of experiment [11] is sunflower (Helianthus annuus, HELAN). The settings on record: post-emergence, read-out: Effect (% visual injury) Obs. The method, then: as §1, §2, §3
For experiment [12], the system named is velvetleaf (Abutilon theophrasti, ABUTH). As to conditions: post-emergence, read-out: Effect (% visual injury) Obs. The method, then:
as §1, §2, §3

The subject of experiment [13] is wild buckwheat (Polygonum convolvulus, POLCO). The method, then:
as §1, §2, §3

Experiment [14] relates to wild oat (Avena fatua, AVEFA). The settings on record: post-emergence, read-out: Effect (% visual injury) Obs. How it is done:
as §1, §2, §3

Experiment [15] relates to wild pansy (Viola tricolor, VIOTR). The settings on record: post-emergence, read-out: Effect (% visual injury) Obs. The method, then: as §1, §2, §3
In experiment [16] the test system is winter wheat (Triticum aestivum, TRZAW). As to conditions: post-emergence, read-out: Effect (% visual injury) Obs. How it is done: as §1, §2, §3
In experiment [17] the test system is chickweed (Stellaria media, STEME). As to conditions: post-emergence, read-out: Effect (% visual injury) Obs. How it is done:
(§4) Seeds of the desired test plant species were planted in Sun Gro MetroMix® 306 planting mixture, which typically has a pH of 6.0 to 6.8 and an organic matter content of about 30 percent, in plastic pots with a surface area of 103.2 square centimeters (cm^2). When required to ensure good germination and healthy plants, a fungicide treatment and/or other chemical or physical treatment was applied. The plants were grown for 7-36 days (d) in a greenhouse with an approximate 14-hour (h) photoperiod which was maintained at about 23° C. during the day and 22° C. during the night. Nutrients and water were added on a regular basis and supplemental lighting was provided with overhead metal halide 1000-Watt lamps as necessary. The plants were employed for testing when they reached the second or third true leaf stage.
(§5) An emulsifiable concentrate (EC) formulation containing Compound 1 at 100 gai/L was prepared by combining Compound 1 with 1-butyl-2-pyrrolidinone (Tamisolve NxG; 360.5 g/L), benzyl acetate (544.6 g/L) and Agnique MBL 520L surfactant (52.9 g/L). […] The concentrated stock solution was diluted with an aqueous mixture of 1.5% v/v of Agri-dex crop oil concentrate to provide the appropriate application rates. Compound requirements are based upon a 12 milliliter (mL) application volume at a rate of 187 liters per hectare (L/ha). Spray solutions of the experimental compound mixtures were prepared by adding the stock solutions to the appropriate amount of dilution solution to form a 12 mL spray solution in two-way combinations. Formulated compounds were applied to the plant material with an overhead Mandel track sprayer equipped with 8002E nozzles calibrated to deliver 187 L/ha over an application area of 0.503 square meters (m^2) at a spray height of 18 inches (43 centimeters (cm)) above average plant canopy. Control plants were sprayed in the same manner with the solvent blank. Application rates for component (a) are in g ae/ha, and application rates for component (b) are in g ai/ha.
as §3

The subject of experiment [18] is kochia (Kochia scoparia, KCHSC). How it is done: as §4, §5, §3
Experiment [19] deals with poinsettia (Euphorbia heterophylla, EPHHL). The method, then:
as §4, §5, §3

Experiment [20] relates to winter rape (Brassica napus, BRSNW). The settings on record: post-emergence, read-out: Effect (% visual injury) Obs. The method, then: as §4, §5, §3
The subject of experiment [21] is ivyleaf morningglory (Ipomoea hederacea, IPOHE). How it is done:
as §4, §5, §3

Where [22] appears, read: Fallopia convolvulus, post-emergence, read-out: Effect (% visual injury) Obs.
The mark [23] stands for this setting: Clodinafop-propargyl 30 g ai/ha.

Where “and” joins values, the source holds several entries; their conditions need not be identical. Identical values can stand only once.

As for `CCCC(=NOCC)C1=C(O)CC(CC(C)SCC)CC1=O` (racemic) [Sethoxydim, (±)-(EZ)-2-(1-ethoxyiminobutyl)-5-[2-(ethylthio)propyl]-3-hydroxycyclohex-2-enone], the pest or weed control at 140 g/ha in [1] was found to be 50%; in experiment [2], 95%; in [3], 5%; in experiment [4], 85%; in [6] it was 60%; in experiment [8], 0%. For the same molecule, the pest or weed control at 140 g/ha in experiment [12] came out at 0%; in [13] (setting [22]), 0%; in experiment [14], 85%; in [15] it was 5%; in experiment [17], 10%. Also, the plant injury at 140 g/ha turned out to be 100% in experiment [5]; 75% in experiment [7]; 75% in experiment [9]; 0% in experiment [10]; 0% in [11]; 60% in [16]. The plant injury at 140 g/ha in [20] was 0%. In addition, the results for the “Effect (% visual injury) Obs” value in [18] (Sethoxydim 140 g ai/ha) and in [19] (Sethoxydim 140 g ai/ha) were 0% and 10%, respectively.
`CCSC(C)CC1CC(=O)C(C(CC)=NOC/C=C/Cl)=C(O)C1` (stereo not drawn) [Clethodim]: the pest or weed control at 70 g/ha in experiment [1] was 100%; in [2], 93%; in experiment [3], 5%; in experiment [4], 85%; in [6] it was 70%; in experiment [8], 5%. In addition, the pest or weed control at 70 g/ha was found to be 0% in [12]; 10% in experiment [13] (setting [22]); 97% in [14]; 5% in [15]; 10% in experiment [17]. The plant injury at 70 g/ha in experiment [7] came out at 100%; in experiment [9] it was 90%; in experiment [10], 10%; in experiment [11], 0%; in experiment [16] it was 70%; in [20], 5%. Also, the “Effect (% visual injury) Obs” value amounted to 0% in experiment [18] (Clethodim 70 g ai/ha) and 30% in [19] (Clethodim 70 g ai/ha).
As to `C#CCOC(=O)[C@@H](C)Oc1ccc(Oc2ncc(Cl)cc2F)cc1` [Clodinafop-propargyl, prop-2-ynyl (R)-2-[4-(5-chloro-3-fluoro-2-pyridyloxy)phenoxy]propionate], the pest or weed control in experiment [1] (setting [23]) was 100%; in experiment [2] (setting [23]), 10%; in [4] (setting [23]), 98%; in [6] (setting [23]), 95%; in [8] (setting [23]), 0%; in [12] (setting [23]), 0%. The pest or weed control in [13] (Fallopia convolvulus, post-emergence, Clodinafop-propargyl 30 g ai/ha, read-out: Effect (% visual injury) Obs) came out at 0%; in experiment [14] (setting [23]), 90%. Moreover, the plant injury in [5] (setting [23]) was found to be 100%; in [7] (setting [23]), 100%; in experiment [9] (setting [23]) it was 90%; in experiment [10] (setting [23]) it was 0%; in [11] (setting [23]), 0%; in experiment [16] (setting [23]), 0%. Further, the pest or weed control at 30 g/ha in experiment [17] (setting [23]) stood at 0%. In [21] (setting [23]), the “Effect (% visual injury) Obs” value was 0%. In [20] (setting [23]), the plant injury at 30 g/ha came to 0%.
Regarding `Nc1c(F)c(-c2ccc3cc[nH]c3c2F)nc(C(=O)O)c1Cl` [Compound 1], the pest or weed control at 10 g/ha in experiment [1] (Compound 1 10 g ai/ha) stood at 60%; in [2] (Compound 1 10 g ai/ha) it was 0%; in experiment [3] (Compound 1 10 g ai/ha), 100%; in [4] (Compound 1 10 g ai/ha), 50%; in experiment [6] (Compound 1 10 g ai/ha), 10%; in experiment [8] (Compound 1 10 g ai/ha), 97%. Moreover, the pest or weed control at 10 g/ha came out at 60% in [12] (Compound 1 10 g ai/ha); 75% in experiment [13] (Fallopia convolvulus, post-emergence, Compound 1 10 g ai/ha, read-out: Effect (% visual injury) Obs); 0% in experiment [14] (Compound 1 10 g ai/ha); 10% in experiment [15] (Compound 1 10 g ai/ha); 70% in experiment [17] (Compound 1 10 g ai/ha). Besides, the pest or weed control at 5 g/ha in experiment [2] (Compound 1 5 g ai/ha) was 0%; in experiment [3] (Compound 1 5 g ai/ha) it was 100%; in experiment [6] (Compound 1 5 g ai/ha) it was 0%; in experiment [12] (Compound 1 5 g ai/ha), 50%; in experiment [14] (Compound 1 5 g ai/ha), 0%. In addition, the plant injury at 10 g/ha in experiment [5] (Compound 1 10 g ai/ha) is 50%; in [7] (Compound 1 10 g ai/ha), 0%; in experiment [9] (Compound 1 10 g ai/ha), 10%; in [10] (Compound 1 10 g ai/ha), 100%; in [11] (Compound 1 10 g ai/ha), 90%; in experiment [16] (Compound 1 10 g ai/ha) it was 0%. In [20] (Compound 1 10 g ai/ha), the plant injury at 10 g/ha amounted to 45%. Besides, the plant injury at 5 g/ha in [7] (Compound 1 5 g ai/ha) was found to be 0%; in [9] (Compound 1 5 g ai/ha) it was 0%; in experiment [10] (Compound 1 5 g ai/ha), 100%; in experiment [11] (Compound 1 5 g ai/ha) it was 95%; in experiment [16] (Compound 1 5 g ai/ha), 0%; in experiment [20] (Compound 1 5 g ai/ha), 60%. Besides, the “Effect (% visual injury) Obs” value was 75% in [13] (Compound 1 10 g ai/ha); 10% in experiment [21] (Compound 1 5 g ai/ha); 60% in [18] (Compound 1 5 g ai/ha); 60% in experiment [18] (Compound 1 10 g ai/ha); 100% and 97% in [19] (Compound 1 5 g ai/ha); 97% in [19] (Compound 1 10 g ai/ha).
For the molecule `CCON=C(CC)C1=C(O)CC(c2c(C)cc(C)cc2C)CC1=O` (stereo not drawn) [Tralkoxydim, 2-[1-(ethoxyimino)propyl]-3-hydroxy-5-mesitylcyclohex-2-enone], the pest or weed control at 200 g/ha was found to be 30% in experiment [1]; 5% in experiment [3]; 0% in experiment [4]; 50% in experiment [6]; 0% in experiment [8]; 0% in [12]. In addition, the pest or weed control at 200 g/ha in [13] (setting [22]) was 0%; in [14], 100%; in experiment [15], 5%; in experiment [17] it was 10%. Moreover, the plant injury at 200 g/ha came out at 60% in experiment [5]; 100% in [7]; 75% in [9]; 0% in experiment [10]; 0% in [20]. The “Effect (% visual injury) Obs” value in experiment [18] (Tralkoxydim 200 g ai/ha) and in experiment [19] (Tralkoxydim 200 g ai/ha) was 0% each time.

(Values after patent US20210145000A1, “WEED CONTROL FROM APPLICATIONS OF PYRIDINE CARBOXYLIC ACID HERBICIDES AND ACETYL CoA CARBOXYLASE (ACCase) INHIBITORS” (Dow AgroSciences LLC, priority 2018, published 2021).)
